Experiment [1] concerns p21 promoter. Kind of experiment: Cell-based p21 promoter luciferase screen with IC50 validation in H1299 cells with doxycycline-inducible p53. The conditions noted are these: luciferase under p21 promoter, about 20 hours. The protocol: A cell-based screen was carried out to identify p21 inhibitors (FIG. 1a). H1299 cells (a cell line having a deletion in the p53 locus) were used. The H1299 cells contain a TetOn system for the inducible expression of p53. In addition, they contain luciferase under the control of the p21 promoter, which is activated by p53. Intracellular p53 expression was induced with doxycycline (0.5 μg/ml). Immediately thereafter, cells were exposed to test substances (5 μM) of the ChemBioNet collection (Leibniz Institut far Molekulare Pharmakologie, Berlin). About 20 hours later, cells were lysed and luciferase activity was determined. […]

Experiment [2] concerns p21-mRNA. Kind of experiment: p21-mRNA expression by qPCR in organs of Nothobranchius furzeri after intraperitoneal injection. It is filed as in vivo. The conditions noted are these: all tissues tested, 10 μM intraperitoneal, 48 h post treatment. The protocol:
FIG. 6: Decreased p21-mRNA expression in different organs of model organism Nothobranchius furzeri in response to I18-inhibitor treatment. p21-mRNA expression in different organs was analysed by quantitative PCR (qPCR) in response to treatment with the p21-inhibitor I18. Upper panel depicts the fold expression difference of p21-mRNA relative to tbp (TATA-box binding protein). Lower panel depicts fold expression of p21-mRNA relative to control (DMSO-treated animals). Note that there is an over 2-fold reduction in all tissues tested indicating the efficiency of p21-inhibitors across different species. 10 weeks old Nothobranchius furzeri were either injected intraperitoneal with I18-compound [10 μM] or with DMSO as control and sacrificed 48 h post treatment. RNA of various tissues was harvested and p21-mRNA expression was measured using quantitative PCR (qPCR). Fold expression was calculated relative to house-keeping gene tbp (TATA-box binding protein) (FIG. 6, upper panel) or control animals (FIG. 6, lower panel).
A general note: In qPCR the cycle at which signal appears reflects the starting amount.

Experiment [3] concerns wound healing in C57BL/6 mice. Kind of experiment: Wound healing after skin biopsy in C57BL/6 mice, intradermal injection. Format: in vivo. The text has this:
FIG. 4: I-18 treatment improves wound healing in 24 week C57BL/6 mice Skin-biopsies (4-5 mm) were taken at Day 0 (D0) and lesions were either treated with 118 inhibitor (right panel) or DMSO treated as control (left panel).
FIG. 5: Depicts a statistic evaluation of the wound healing area 0, 2, and 4 days after application of I18 or placebo to wound area. Skin biopsies (4-5 mm) were taken at Day 0 of young and old C57Bl6 mice and lesions were either treated with I18 inhibitor or DMSO. […] This trend further increased at Day 4.
Skin-biopsies (4-5 mm) were taken at Day 0 (D0) and lesions were either treated with I18 compound (FIG. 4, right panel) or DMSO as control (FIG. 4, left panel) by intradermal injection [50 μM].

The mark [4] stands for this setting: Homo sapiens, NCI-H1299, p53 induced with doxycycline 0.5 μg/ml.

The results in this text go back to patent US20150210717A1, “SPECIFIC INHIBITORS OF PROTEIN P21 AS THERAPEUTIC AGENTS” (BADEN-WÜRTTEMBERG STIFTUNG GMBH, priority 2012, published 2015).

As a reminder, the IC50 is the concentration that gives 50% inhibition. Low readings indicate greater potency, high ones weaker potency. Turning to `COc1ccc(C2C(C#N)=C(N)Oc3c2ccc2ccccc32)cc1C` (centres unmarked) [A6, 2-amino-4-(4-methoxy-3-methylphenyl)-4H-benzo[h]chromene-3-carbonitrile], it took 1130 nM to reach half-maximal inhibition in experiment [1] (setting [4]) (IC50).

In turn, `CCOC(=O)c1ccc(Nc2nc3nonc3nc2Nc2cccc(C)c2C)cc1` [A13, Ethyl-4-[[5-(2,3-dimethylanilino)-[1,2,5]oxadiazolo[3,4-b]pyrazin-6-yl]amino]benzoate] displayed an IC50 in experiment [1] (setting [4]) of 760 nM.

`COc1ccc(C(=O)Nc2nc(NC(=O)c3ccc(F)cc3)nn2-c2ccccc2)cc1` [E6, N-[5-[(4-Fluorobenzoyl)amino]-2-phenyl-1,2,4-triazol-3-y1]-4-methoxybenzamide]: the IC50 in experiment [1] (p53 induced with doxycycline 0.5 μg/ml) stood at 490 nM.

As to `NS(=O)(=O)c1ccc(CCNc2ncnc3c2c(-c2ccccc2)cn3-c2ccc(Br)cc2)cc1` [F3, 4-[2-[[7-(4-Bromophenyl)-5-phenylpyrrolo[2,3-d]pyrimidin-4-yl]amino]ethyl]benzenesulfonamide], in experiment [1] (setting [4]), the 50% inhibitory concentration (IC50) stood at 6080 nM.

In turn, `Cc1ccc2[nH]c3c(c2c1)CCCC3Nc1ccccc1` (centres unmarked) [I18, 6-methyl-N-phenyl-2,3,4,9-tetrahydro-1H-carbazol-1-amine] yielded a half-maximal inhibitory concentration (IC50) in experiment [1] (setting [4]) of 170 nM. For the same compound, in experiment [2], the “reduction of p21-mRNA expression relative to control (DMSO-treated animals)” value is on record as “over 2 fold”. For the same compound, the “wound healing in old treated mice versus p21-deficient mice” value in experiment [3] (after 4 days, old mice) is on record as “comparable to p21-deficient mice”. Also, the “wound healing of old mice compared to mock treated control mice of the same age” value in experiment [3] (day 2, old C57Bl6 mice, trend further increased at day 4) is reported as “significantly improved”. For the same compound, in experiment [3] (day 2 and 4, skin biopsies 4-5 mm, intradermal injection 50 μM), the “wound healing compared to DMSO treated control mice” value is listed as “significantly improved”.

In turn, `O=C(Nc1ccc(OCC(F)(F)C(F)F)c(C(F)(F)F)c1)c1ccccc1O` [K2, 2-Hydroxy-N-[4-(2,2,3,3-tetrafluoropropoxy)-3-(trifluoromethyl)phenyl)benzamide] showed a half-inhibitory concentration (IC50) in experiment [1] (setting [4]) of 1720 nM.

In the case of `Cc1c(Br)ccc(Nc2c([N+](=O)[O-])cc3c4c(cccc24)C(=O)N(CCO)C3=O)c1C` [M3, 6-(4-Bromo-2,3-dimethylanilino)-2-(2-hydroxyethyl)-5-nitrobenzo[de]isoquinoline-1,3-dione], the IC50 in experiment [1] (setting [4]) was 3580 nM.

On to `CC(C)c1ccc(-c2c(C#N)c(N)n3c(nc4ccccc43)c2C#N)cc1` [N13, 1-Amino-3-(4-propan-2-ylphenyl)pyrido[1,2-a]benzimidazole-2,4-dicarbonitrile], for which the midpoint of inhibition in experiment [1] (setting [4]), the IC50, lay at 1110 nM.

In experiment [1] (setting [4]), `CCc1ccc2c(c1)C1(NN=C(c3cccc4ccccc34)S1)C(=O)N2` (centres unmarked) [O6, 5-Ethyl-5′naphthalen-1-ylspiro[1H-indole-3,2′-3H-1,3,4-thiadiazole]-2-one] showed a half-inhibitory concentration (IC50) of 3680 nM.

As to `O=c1c2ccccc2c2nccc3c4cc(O)ccc4n1c32` [P21, 5-hydroxy-9H-benzo[c]indolo[3,2,1-ij][1,5]naphthyridin-9-one], the midpoint of inhibition in experiment [1] (setting [4]), the IC50, lay at 1070 nM.
